The values that follow come from ChEMBL document CHEMBL2086250, “Long-acting peptidomimetics based DPP-IV inhibitors” (Bioorg Med Chem Lett, 2012).

Calls of active or inactive are those of the source. The calls are words filed in the database; no cut-off is given here.

The test system of data set [1] is Mus musculus. The experiment in a line: Antidiabetic activity against C57BL/6J mouse assessed as reduction serum glucose AUC levels at 20 mg/kg, po measured up to 30 mins by IPGTT method. Also noted: dose 20 mg/kg. Format: functional, organism-based.
Data set [2] has as its system Mus musculus. Kind of data set: Antidiabetic activity against C57BL/6J mouse assessed as reduction serum glucose AUC levels at 20 mg/kg, po measured up to 120 mins by IPGTT method. Format: functional, organism-based. Details: dose 20 mg/kg.
A short description of data set [3]: Cmax in C57BL/6J mouse at 20 mg/kg, po administered as single dose. Format: ADME, organism-based. Details: dose 20 mg/kg, route oral. The note with it: in vivo.
Data set [4] can be described thus: AUC (0 to alpha) in C57BL/6J mouse at 20 mg/kg, po administered as single dose. Format: ADME, organism-based. Details: dose 20 mg/kg, route oral. The note with it: plasma.
Data set [5] in a line: Tmax in C57BL/6J mouse at 20 mg/kg, po administered as single dose. Details: dose 20 mg/kg, route oral. Conditions: in vivo. Format: ADME, organism-based.
The nature of data set [6]: Oral bioavailability in C57BL/6J mouse at 20 mg/kg administered as single dose. Format: ADME, organism-based. The note with it: in vivo.
Data set [7] has as its system Mus musculus. Kind of data set: Antidiabetic activity against C57BL/6J mouse assessed as reduction serum glucose AUC levels at 20 mg/kg, po measured up to 60 mins by IPGTT method. Format: functional, organism-based. Also noted: dose 20 mg/kg.
Data set [8] in a line: Half life in C57BL/6J mouse at 20 mg/kg, po administered as single dose. Details: dose 20 mg/kg, route oral. The note with it: in vivo. Format: ADME, organism-based.
In data set [9] the test system is Mus musculus. Kind of data set: Antidiabetic activity against C57BL/6J mouse assessed as reduction serum glucose AUC levels at 20 mg/kg, po measured up to 240 mins by IPGTT method. Format: functional, organism-based. Details: dose 20 mg/kg.
Data set [10] can be described thus: Elimination rate constant in C57BL/6J mouse at 20 mg/kg administered as single dose. Format: ADME, organism-based. Details: dose 20 mg/kg. The note with it: in vivo.

A word on the Cmax: it is the peak of the concentration-time curve. A word on the AUC: it is the area under the concentration-time curve, a measure of exposure. As usually defined, the Tmax is the time at which the peak concentration occurs. One may read the bioavailability as dose-corrected exposure relative to a reference, in per cent. For orientation: half-life means the time in which the quantity being followed falls by half. A lower half-life goes with fast loss. As to `N#Cc1ccc(NCCNCC(=O)N2CCC[C@H]2C#N)nc1`, the outcome with Mus musculus [1] and with Mus musculus [7] was Active. Moreover, the outcome in the data set on Mus musculus [2] and in the data set with Mus musculus [9] was inactive. The concentration in data set [3] peaked (Cmax) at 6200 ng/mL. This compound also yielded an AUC in data set [4] of 6490 ng·h/mL. For the same compound, the Tmax in data set [5] is 19.2 min. Besides, in [6], the bioavailability came out at 65%. Also, in [8], the half-life was 52.8 min.
In the case of `N#Cc1ccc(C(=O)NCCCC(=O)N2CCC[C@H]2C#N)cc1`, the outcome with Mus musculus [1], in the data set with Mus musculus [2], in the data set with Mus musculus [7] and in the data set with Mus musculus [9] was Active. The compound further displayed a Cmax in data set [3] of 7100 ng/mL. This compound came in with an area under the curve (AUC) in data set [4] of 14300 ng·h/mL. The Tmax in [5] was determined as 17.4 min. Also, the bioavailability in [6] worked out at 72.5%. This compound had a half-life in data set [8] of 479 min. In data set [10], this compound gave a k el of 3.06e-05 s⁻¹.
For the compound `N#C[C@@H]1CCCN1C(=O)CCCNC(=O)c1ccc(C(F)(F)F)cc1`, the outcome in the data set on Mus musculus [1] and in the data set on Mus musculus [7] was Active. Also, the result with Mus musculus [2] and in the data set with Mus musculus [9] was inactive. The compound further gave a Cmax in [3] of 5900 ng/mL. The exposure (AUC) in [4] is 6890 ng·h/mL. Moreover, the Tmax in data set [5] came to 16.8 min. In addition, in data set [6], the bioavailability stood at 63.1%. For the same compound, in data set [8], the half-life was 59.4 min. The same compound had a k el in data set [10] of 0.000228 s⁻¹.
